This passage reports IC50 results from patent US10787450B2 (BRISTOL-MYERS SQUIBB COMPANY, priority 2016, dated 2020).

For the assay, the target named is ROCK2 (Homo sapiens (Human), UniProt O75116). Kind of assay: ROCK2 kinase inhibition assay (FITC peptide substrate, LABCHIP 3000 Reader). Particulars: 5 μM ATP, 1.5 μM peptide substrate. In kind it is biochemical. An outline of the steps: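 Reaction in 20 mM HEPES pH 7.5, 20 mM MgCl2, 0.015% Brij-35, 4 mM DTT with 5 μM ATP and 1.5 μM FITC-AHA-AKRRRLSSLRA-OH peptide, started with Rho kinase, DMSO <2%. EDTA-stopped; phospho and non-phospho peptide separated by mobility shift. IC50 from dose-response curve fit.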
Chain of ROCK2 (O75116 whole entry, species assumed): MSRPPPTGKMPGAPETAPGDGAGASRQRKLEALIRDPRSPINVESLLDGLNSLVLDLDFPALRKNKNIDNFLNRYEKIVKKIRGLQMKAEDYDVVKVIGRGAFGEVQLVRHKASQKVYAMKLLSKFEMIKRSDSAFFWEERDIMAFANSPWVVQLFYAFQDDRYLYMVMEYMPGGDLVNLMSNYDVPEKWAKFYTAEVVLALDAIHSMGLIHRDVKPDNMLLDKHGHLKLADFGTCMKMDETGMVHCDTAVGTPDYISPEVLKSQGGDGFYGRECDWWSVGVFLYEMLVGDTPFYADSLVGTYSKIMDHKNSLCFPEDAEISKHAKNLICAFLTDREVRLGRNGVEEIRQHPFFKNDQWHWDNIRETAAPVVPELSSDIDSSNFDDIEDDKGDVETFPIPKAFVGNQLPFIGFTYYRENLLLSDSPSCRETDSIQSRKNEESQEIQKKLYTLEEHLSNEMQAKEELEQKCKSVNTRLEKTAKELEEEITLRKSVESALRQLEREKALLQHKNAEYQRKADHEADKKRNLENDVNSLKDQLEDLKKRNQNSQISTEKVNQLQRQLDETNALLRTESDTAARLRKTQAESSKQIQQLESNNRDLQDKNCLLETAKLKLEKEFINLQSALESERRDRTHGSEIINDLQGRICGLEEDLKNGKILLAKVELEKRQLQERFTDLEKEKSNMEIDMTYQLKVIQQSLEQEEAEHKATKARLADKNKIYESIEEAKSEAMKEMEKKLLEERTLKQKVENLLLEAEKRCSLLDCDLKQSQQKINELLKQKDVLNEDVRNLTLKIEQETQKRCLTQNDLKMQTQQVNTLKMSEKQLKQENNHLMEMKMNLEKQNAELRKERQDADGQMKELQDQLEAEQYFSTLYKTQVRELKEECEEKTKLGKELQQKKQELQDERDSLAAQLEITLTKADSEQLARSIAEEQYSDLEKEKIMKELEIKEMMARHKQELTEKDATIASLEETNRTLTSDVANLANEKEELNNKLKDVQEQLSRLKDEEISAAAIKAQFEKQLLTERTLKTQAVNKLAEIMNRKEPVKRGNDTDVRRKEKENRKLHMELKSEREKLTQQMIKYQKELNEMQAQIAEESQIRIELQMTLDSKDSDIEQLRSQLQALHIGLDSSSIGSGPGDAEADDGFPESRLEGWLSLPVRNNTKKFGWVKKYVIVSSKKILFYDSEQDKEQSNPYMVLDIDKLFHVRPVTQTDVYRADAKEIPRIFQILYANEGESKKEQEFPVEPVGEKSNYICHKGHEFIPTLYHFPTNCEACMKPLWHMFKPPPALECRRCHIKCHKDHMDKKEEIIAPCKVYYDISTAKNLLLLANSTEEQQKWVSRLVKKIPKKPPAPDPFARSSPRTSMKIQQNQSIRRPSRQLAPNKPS
With `CCN1CCC2(CC1)CN(c1ccc(-c3cn[nH]c3)cc1)C(=O)N2Cc1cccc(OC)c1` [Example 122, 3-(4-(1H-pyrazol-4-yl)phenyl)-8-ethyl-1-(3-methoxybenzyl)-1,3,8-triazaspiro[4.5]decan-2-one], the IC50 is under 3 nM.

In the case of `CCC(CC)CN1CCC2(CC1)CN(c1ccc(-c3cn[nH]c3)cc1)C(=O)N2Cc1cccc(OC)c1` [Example 123, 3-(4-(1H-pyrazol-4-yl)phenyl)-8-(2-ethylbutyl)-1-(3-methoxybenzyl)-1,3,8-triazaspiro[4.5]decan-2-one], the IC50 was under 3 nM. Take `COc1cccc(CN2C(=O)N(c3ccc(-c4cn[nH]c4)cc3)CC23CCN(CC(C)C)CC3)c1` [Example 124, 3-(4-(1H-pyrazol-4-yl)phenyl)-8-isobutyl-1-(3-methoxybenzyl)-1,3,8-triazaspiro[4.5]decan-2-one]: the IC50 is under 3 nM.

Molecule `COc1cccc(CN2C(=O)N(c3ccc(-c4cn[nH]c4)cc3)CC23CCN(CCc2ccccc2)CC3)c1` [Example 125, 3-(4-(1H-pyrazol-4-yl)phenyl)-1-(3-methoxybenzyl)-8-phenethyl-1,3,8-triazaspiro[4.5]decan-2-one] returned an IC50 of 3 to 30 nM. In the case of `CCc1nc(N2CC3(CCN(CCC(F)(F)F)CC3)N(Cc3cccc(F)c3C)C2=O)ccc1-c1cn[nH]c1` [Example 126, 3-(6-ethyl-5-(1H-pyrazol-4-yl)pyridin-2-yl)-1-(3-fluoro-2-methylbenzyl)-8-(3,3,3-trifluoropropyl)-1,3,8-triazaspiro[4.5]decan-2-one] it was 3 to 30 nM; in that of `CCc1nc(N2CC3(CCN(CCC(F)(F)F)CC3)N(Cc3cccc(OC)c3)C2=O)ccc1-c1cn[nH]c1` [Example 127, 3-(6-ethyl-5-(1H-pyrazol-4-yl)pyridin-2-yl)-1-(3-methoxybenzyl)-8-(3,3,3-trifluoropropyl)-1,3,8-triazaspiro[4.5]decan-2-one], 3 to 30 nM; in that of `CCc1nc(N2CC3(CCN(CCC(F)(F)F)CC3)N(Cc3cc(F)cc(OC)c3)C2=O)ccc1-c1cn[nH]c1` [Example 128, 3-(6-ethyl-5-(1H-pyrazol-4-yl)pyridin-2-yl)-1-(3-fluoro-5-methoxybenzyl)-8-(3,3,3-tnfluoropropyl)-1,3,8-triazaspiro[4.5]decan-2-one], 3 to 30 nM.

The molecule `CCc1nc(N2CC3(CCN(CC(F)F)CC3)N(Cc3cc(F)cc(OC)c3)C2=O)ccc1-c1cn[nH]c1` [Example 129, 8-(2,2-difluoroethyl)-3-(6-ethyl-5-(1H-pyrazol-4-yl)pyridin-2-yl)-1-(3-fluoro-5-methoxybenzyl)-1,3,8-triazaspiro[4.5]decan-2-one] showed an IC50 of 3 to 30 nM. In the case of `CCc1nc(N2CC3(CCN(CC(F)F)CC3)N(Cc3cccc(F)c3C)C2=O)ccc1-c1cn[nH]c1` [Example 130, 8-(2,2-difluoroethyl)-3-(6-ethyl-5-(1H-pyrazol-4-yl)pyridin-2-yl)-1-(3-fluoro-2-methylbenzyl)-1,3,8-triazaspiro[4.5]decan-2-one] it was 3 to 30 nM; in that of `Cc1c(F)cccc1CN1C(=O)N(c2ccc(-c3cn[nH]c3)cc2)CC12CCN(CC(F)F)CC2` [Example 131, 3-(4-(1H-pyrazol-4-yl)phenyl)-8-(2,2-difluoroethyl)-1-(3-fluoro-2-methylbenzyl)-1,3,8-triazaspiro[4.5]decan-2-one], under 3 nM. Molecule `COc1cc(F)cc(CN2C(=O)N(c3ccc(-c4cn[nH]c4)cc3)CC23CCN(CC(F)F)CC3)c1` [Example 132, 3-(4-(1H-pyrazol-4-yl)phenyl)-8-(2,2-difluoroethyl)-1-(3-fluoro-5-methoxybenzyl)-1,3,8-triazaspiro[4.5]decan-2-one] returned an IC50 of under 3 nM. In the case of `COc1cccc(CN2C(=O)N(c3ccc(-c4cn[nH]c4)cn3)CC23CCN(CCC(F)(F)F)CC3)c1` [Example 133, 3-(5-(1H-pyrazol-4-yl)pyridin-2-yl)-1-(3-methoxybenzyl)-8-(3,3,3-trifluoropropyl)-1,3,8-triazaspiro[4.5]decan-2-one] it was 3 to 30 nM; in that of `COc1cccc(CN2C(=O)N(c3ncc(-c4cn[nH]c4)c(OC)n3)CC23CCN(CCC(F)(F)F)CC3)c1` [Example 134, 3-(4-methoxy-5-(1H-pyrazol-4-yl)pyrimidin-2-yl)-1-(3-methoxybenzyl)-8-(3,3,3-trifluoropropyl)-1,3,8-triazaspiro[4.5]decan-2-one], 30 to 250 nM; in that of `COc1cccc(CN2C(=O)N(c3ccc(-c4cn[nH]c4)c(OC)n3)CC23CCN(CC(F)F)CC3)c1` [Example 135, 8-(2,2-difluoroethyl)-3-(6-methoxy-5-(1H-pyrazol-4-yl)pyridin-2-yl)-1-(3-methoxybenzyl)-1,3,8-triazaspiro[4.5]decan-2-one], under 3 nM. Molecule `COc1cccc(CN2C(=O)N(c3ccc(-c4cn[nH]c4)c(OC)n3)CC23CCN(CCC(F)(F)F)CC3)c1` [Example 136, 3-(6-methoxy-5-(1H-pyrazol-4-yl)pyridin-2-yl)-1-(3-methoxybenzyl)-8-(3,3,3-trifluoropropyl)-1,3,8-triazaspiro[4.5]decan-2-one] came in with a concentration for half-maximal inhibition (IC50) of under 3 nM. `COc1nc(N2CC3(CCN(CC(F)F)CC3)N(Cc3cccc(F)c3C)C2=O)ccc1-c1cn[nH]c1` [Example 137] had an IC50 of under 3 nM. With `COc1cccc(CN2C(=O)N(c3ccc(-c4cn[nH]c4)cc3)CC23CCN(CC(C)(C)O)CC3)c1` [Example 138, 3-(4-(1H-pyrazol-4-yl)phenyl)-8-(2-hydroxy-2-methylpropyl)-1-(3-methoxybenzyl)-1,3,8-triazaspiro[4.5]decan-2-one], the half-maximal inhibitory concentration (IC50) was under 3 nM. For `COc1cccc(CN2C(=O)N(c3ccc(-c4cn[nH]c4)cc3)CC23CCN(CCO)CC3)c1` [Example 141, 3-(4-(1H-pyrazol-4-yl)phenyl)-8-(2-hydroxyethyl)-1-(3-methoxybenzyl)-1,3,8-triazaspiro[4.5]decan-2-one], the IC50 is under 3 nM. For `COCCN1CCC2(CC1)CN(c1ccc(-c3cn[nH]c3)cc1)C(=O)N2Cc1cccc(OC)c1` [Example 142, 3-(4-(1H-pyrazol-4-yl)phenyl)-1-(3-methoxybenzyl)-8-(2-methoxyethyl)-1,3,8-triazaspiro[4.5]decan-2-one], the IC50 lay in the range of 3 to 30 nM. Take `Cc1c(F)cccc1CN1C(=O)N(c2ccc(-c3cn[nH]c3)cc2)CC12CCN(CCO)CC2` [Example 143, 3-(4-(1H-pyrazol-4-yl)phenyl)-1-(3-fluoro-2-methylbenzyl)-8-(2-hydroxyethyl)-1,3,8-triazaspiro[4.5]decan-2-one]: the 50% inhibitory concentration (IC50) is under 3 nM.

Take `COc1cc(F)cc(CN2C(=O)N(c3ccc(-c4cn[nH]c4)cc3)CC23CCN(CCO)CC3)c1` [Example 144, 3-(4-(1H-pyrazol-4-yl)phenyl)-1-(3-fluoro-5-methoxybenzyl)-8-(2-hydroxyethyl)-1,3,8-triazaspiro[4.5]decan-2-one]: the IC50 was under 3 nM.

With `COc1cccc(CN2C(=O)N(c3ccc(-c4cn[nH]c4)cc3)CC23CC[N+]([O-])(CCO)CC3)c1` (stereo not drawn) [Example 145, 3-(4-(1H-pyrazol-4-yl)phenyl)-8-(2-hydroxyethyl)-1-(3-methoxybenzyl)-2-oxo-1,3,8-triazaspiro[4.5]decane 8-oxide], the IC50 is under 3 nM.

`COc1cccc(CN2C(=O)N(c3ccc(-c4cn[nH]c4)c(OC)n3)CC23CCN(CCO)CC3)c1` [Example 146, 8-(2-hydroxyethyl)-3-(6-methoxy-5-(1H-pyrazol-4-yl)pyridin-2-yl)-1-(3-methoxybenzyl)-1,3,8-triazaspiro[4.5]decan-2-one] gave an IC50 of under 3 nM. For the molecule `COc1cccc(CN2C(=O)N(c3ccc(-c4cn[nH]c4)c(OC)n3)CC23CCN(CC(C)O)CC3)c1` (stereo not drawn) [Example 147, 8-(2-hydroxypropyl)-3-(6-methoxy-5-(1H-pyrazol-4-yl)pyridin-2-yl)-1-(3-methoxybenzyl)-1,3,8-triazaspiro[4.5]decan-2-one], the IC50 is under 3 nM.

On to `COc1cccc(CN2C(=O)N(c3ccc(-c4cn[nH]c4)c(OC)n3)CC23CCN(CC(C)(C)O)CC3)c1` [Example 148, 8-(2-hydroxy-2-methylpropyl)-3-(6-methoxy-5-(1H-pyrazol-4-yl)pyridin-2-yl)-1-(3-methoxybenzyl)-1,3,8-triazaspiro[4.5]decan-2-one], for which the IC50 was under 3 nM. The molecule `CCc1nc(N2CC3(CCN(CCO)CC3)N(Cc3cccc(F)c3C)C2=O)ccc1-c1cn[nH]c1` [Example 149, 3-(6-ethyl-5-(1H-pyrazol-4-yl)pyridin-2-yl)-1-(3-fluoro-2-methylbenzyl)-8-(2-hydroxyethyl)-1,3,8-triazaspiro[4.5]decan-2-one] yielded an IC50 of under 3 nM.

Take `CCc1nc(N2CC3(CCN(CCO)CC3)N(Cc3cccc(OC)c3)C2=O)ccc1-c1cn[nH]c1` [Example 150, 3-(6-ethyl-5-(1H-pyrazol-4-yl)pyridin-2-yl)-8-(2-hydroxyethyl)-1-(3-methoxybenzyl)-1,3,8-triazaspiro[4.5]decan-2-one]: the IC50 is under 3 nM. Molecule `CCc1nc(N2CC3(CCN(CC(C)O)CC3)N(Cc3cccc(OC)c3)C2=O)ccc1-c1cn[nH]c1` (stereo not drawn) [Example 151, 3-(6-ethyl-5-(1H-pyrazol-4-yl)pyridin-2-yl)-8-(2-hydroxypropyl)-1-(3-methoxybenzyl)-1,3,8-triazaspiro[4.5]decan-2-one] had a concentration for half-maximal inhibition (IC50) of under 3 nM. For the molecule `CCc1nc(N2CC3(CCN(CC(C)(C)O)CC3)N(Cc3cccc(OC)c3)C2=O)ccc1-c1cn[nH]c1` [Example 152, 3-(6-ethyl-5-(1H-pyrazol-4-yl)pyridin-2-yl)-8-(2-hydroxy-2-methylpropyl)-1-(3-methoxybenzyl)-1,3,8-triazaspiro[4.5]decan-2-one], the concentration for half-maximal inhibition (IC50) was under 3 nM. In the case of `CCc1nc(N2CC3(CCN(CCO)CC3)N(Cc3cc(F)cc(OC)c3)C2=O)ccc1-c1cn[nH]c1` [Example 153, 3-(6-ethyl-5-(1H-pyrazol-4-yl)pyridin-2-yl)-1-(3-fluoro-5-methoxybenzyl)-8-(2-hydroxyethyl)-1,3,8-triazaspiro[4.5]decan-2-one] it was under 3 nM.

By IC50 is commonly meant the concentration needed to halve the response being measured.
